Data as given in ChEMBL document CHEMBL4265901, “Eupatilin inhibits angiogenesis-mediated human hepatocellular metastasis by reducing MMP-2 and VEGF signaling” (Bioorg Med Chem Lett, 2018).
The source made the active and inactive calls. No cut-off for these calls is given here.

Key:
[1] = tested on: SNU-182; assay: Downregulation of MMP9 mRNA levels in human SNU182 cells at 20 uM after 24 hrs by quantitative real-time qPCR analysis; type: functional, cell-based
[2] = tested on: SNU-182; assay: Cytotoxicity against human SNU182 cells assessed as decrease in cell viability up to 20 uM after 48 hrs by MTT assay; type: cell-based; conditions: snu-182, 48 h
[3] = tested on: HepG2; assay: Antiproliferative activity against human HepG2 cells after 24 hrs by MTT assay; type: functional, cell-based
[4] = tested on: HUVEC; assay: Downregulation of HIF-1 alpha protein level in HUVEC at 6.25 uM after 24 hrs by Western blot analysis relative to control; type: functional, Homo sapiens
[5] = tested on: HepG2; assay: Antiproliferative activity against human HepG2 cells at 200 uM after 24 hrs by MTT assay; type: functional
[6] = tested on: HUVEC; assay: Antiangiogenic activity in HUVEC assessed as inhibition of tube formation at 3.125 uM after 24 hrs by light microscopic analysis relative to control; type: functional; conditions: Homo sapiens
[7] = tested on: SNU-182; assay: Downregulation of MMP2 mRNA levels in human SNU182 cells at 20 uM after 24 hrs by quantitative real-time qPCR analysis; type: functional, cell-based
[8] = biological target: RAC-alpha serine/threonine-protein kinase (Homo sapiens) (UniProt P31749); assay: Inhibition of Akt phosphorylation in HUVEC at 6.25 uM after 24 hrs by Western blot analysis relative to control; type: cell-based
Sequence of RAC-alpha serine/threonine-protein kinase (Homo sapiens) (P31749 whole entry): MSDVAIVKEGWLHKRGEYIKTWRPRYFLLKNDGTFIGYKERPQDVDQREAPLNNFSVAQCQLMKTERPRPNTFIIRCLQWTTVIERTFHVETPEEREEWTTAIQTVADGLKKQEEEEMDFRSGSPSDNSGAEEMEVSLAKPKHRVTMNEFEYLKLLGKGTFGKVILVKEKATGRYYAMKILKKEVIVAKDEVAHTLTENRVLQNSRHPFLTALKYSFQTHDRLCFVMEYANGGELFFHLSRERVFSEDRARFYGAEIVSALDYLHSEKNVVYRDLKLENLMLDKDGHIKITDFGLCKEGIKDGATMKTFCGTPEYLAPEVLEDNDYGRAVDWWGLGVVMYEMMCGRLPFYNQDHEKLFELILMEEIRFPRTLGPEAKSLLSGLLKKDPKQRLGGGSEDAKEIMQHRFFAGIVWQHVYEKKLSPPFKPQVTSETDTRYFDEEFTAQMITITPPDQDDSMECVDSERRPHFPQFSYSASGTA

[9] = tested on: HUVEC; assay: Downregulation of HIF-1 alpha protein level in HUVEC at 3.125 uM after 24 hrs by Western blot analysis relative to control; type: functional, Homo sapiens
[10] = tested on: HUVEC; assay: Antiangiogenic activity in HUVEC assessed as inhibition of tube formation at 6.25 uM after 24 hrs by light microscopic analysis relative to control; type: functional; conditions: Homo sapiens
[11] = tested on: HUVEC; assay: Cytotoxicity activity against HUVEC assessed as decrease in cell viability up to 6.25 uM after 24 hrs by MTT assay; type: cell-based; conditions: human
[12] = biological target: RAC-alpha serine/threonine-protein kinase (Homo sapiens) (UniProt P31749); assay: Inhibition of Akt phosphorylation in HUVEC at 3.125 uM after 24 hrs by Western blot analysis relative to control; type: cell-based
[13] = tested on: HUVEC; assay: Downregulation of VEGF protein level in HUVEC at 3.125 uM after 24 hrs by Western blot analysis relative to control; type: functional, Homo sapiens
[14] = tested on: HUVEC; assay: Downregulation of VEGF level in HUVEC at 6.25 uM after 24 hrs by Western blot analysis relative to control; type: functional, Homo sapiens
[15] = tested on: HUVEC; assay: Cytotoxicity activity against HUVEC assessed as decrease in cell viability at 12.5 to 100 uM after 24 hrs by MTT assay; type: cell-based; conditions: human
[16] = tested on: HUVEC; assay: Antiangiogenic activity in HUVEC assessed as inhibition of tube formation at 1.6 uM after 24 hrs by light microscopic analysis relative to control; type: functional; conditions: Homo sapiens

Row | Structure (SMILES) | Activity [1] | Activity [2] | Activity [3] | fold change (FC) [4] | Activity [5] [%] | inhibition at 3.125 µM [6] [%] | Activity [7] | fold change (FC) [8] | fold change (FC) [9] | inhibition at 6.25 µM [10] [%] | Activity [11] | fold change (FC) [12] | fold change (FC) [13] | Activity [14] [%] | Activity [15] | inhibition at 1.6 µM [16] [%]
1 | COc1ccc(-c2cc(=O)c3c(O)c(OC)c(O)cc3o2)cc1OC [EUPATILIN] | inactive | Non-Toxic | Dose-dependent effect | 0.84 | 43.24 | 14.1 | Active | 0.8 | 0.83 | 24.8 | Non-Toxic | 0.82 | 0.88 | 31 | Toxic | –
2 | CC(C)=CC[C@@H](O)C1=CC(=O)c2c(O)ccc(O)c2C1=O [SHIKONIN] | – | – | – | – | – | – | – | – | – | – | – | – | – | – | – | 31.8
